Experimental data: ChEMBL document CHEMBL1201862, “PubChem BioAssay data set” (2004)
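Compound exposure: 48 hours, 5 concentrations, 96-well plates. GI50 = concentration required for 50% inhibition of growth.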 The source made the active and inactive calls. Cut-off read from the data, not from the text of the source: active = GI50 up to about 1.1 µM and inactive = higher.

How the values were obtained:
Test in all cases: inhibition of tumour cell growth, NCI panel, 48 h
MOLT-4 = test system: MOLT-4
DU-145 = test system: DU-145
SK-OV-3 = test system: SK-OV-3
HT-29 = test system: HT-29
ACHN = test system: ACHN
UACC-62 = test system: UACC-62
LOX IMVI = test system: LOX IMVI
SNB-19 = test system: SNB-19
SNB-75 = test system: SNB-75
PC-3 = test system: PC-3
U-251 = test system: U-251
CCRF-CEM = test system: CCRF-CEM
MDA-MB-231 = test system: MDA-MB-231
OVCAR-5 = test system: OVCAR-5
SF-539 = test system: SF-539
A498 = test system: A498
SK-MEL-2 = test system: SK-MEL-2
HCC 2998 = test system: HCC 2998
SN12C = test system: SN12C
NCI-H226 = test system: NCI-H226
HCT-116 = test system: HCT-116
OVCAR-4 = test system: OVCAR-4
COLO 205 = test system: COLO 205
NCI/ADR-RES = test system: NCI/ADR-RES
Hs-578T = test system: Hs-578T
OVCAR-8 = test system: OVCAR-8
UO-31 = test system: UO-31
CAKI-1 = test system: CAKI-1
SK-MEL-28 = test system: SK-MEL-28
SK-MEL-5 = test system: SK-MEL-5
KM12 = test system: KM12
RXF 393 = test system: RXF 393
K562 = test system: K562
SF-268 = test system: SF-268
Malme-3M = test system: Malme-3M
UACC-257 = test system: UACC-257
HOP-92 = test system: HOP-92
EKVX = test system: EKVX
TK-10 = test system: TK-10
IGROV-1 = test system: IGROV-1
MDA-N = test system: MDA-N
786-0 = test system: 786-0
HOP-62 = test system: HOP-62
HCT-15 = test system: HCT-15
M14 = test system: M14
NCI-H460 = test system: NCI-H460
MDA-MB-435 = test system: MDA-MB-435
MCF7 = test system: MCF7
OVCAR-3 = test system: OVCAR-3
A549 = test system: A549
RPMI-8226 = test system: RPMI-8226
SR = test system: SR
T47D = test system: T47D
SF-295 = test system: SF-295
NCI-H23 = test system: NCI-H23
BT-549 = test system: BT-549
SW-620 = test system: SW-620
HL-60 = test system: HL-60

CC(=O)O[C@H]1C(=O)N(c2cc3c4ccccc4ccc3c3ccccc23)[C@@H]1c1ccccc1
GI50 (MOLT-4): 7.69 µM (inactive) | GI50 (DU-145): 14.5 µM (inactive) | GI50 (SK-OV-3): 4.74 µM (inactive) | GI50 (HT-29): 2.64 µM (inactive) | GI50 (ACHN): 6.38 µM (inactive) | GI50 (UACC-62): 3.15 µM (inactive) | GI50 (LOX IMVI): 4.34 µM (inactive) | GI50 (SNB-19): 6.79 µM (inactive) | GI50 (SNB-75): 2 µM (inactive) | GI50 (PC-3): 7.82 µM (inactive) | GI50 (U-251): 7.33 µM (inactive) | GI50 (CCRF-CEM): 3.76 µM (inactive) | GI50 (MDA-MB-231): 10.9 µM (inactive) | GI50 (OVCAR-5): 15.7 µM (inactive) | GI50 (SF-539): 3.89 µM (inactive) | GI50 (A498): 21.8 µM (inactive) | GI50 (SK-MEL-2): 2.65 µM (inactive) | GI50 (HCC 2998): 5.04 µM (inactive) | GI50 (SN12C): 11 µM (inactive) | GI50 (NCI-H226): 3.33 µM (inactive) | GI50 (HCT-116): 3.21 µM (inactive) | GI50 (OVCAR-4): 4.66 µM (inactive) | GI50 (COLO 205): 4.24 µM (inactive) | GI50 (NCI/ADR-RES): 4.38 µM (inactive) | GI50 (Hs-578T): 5.16 µM (inactive) | GI50 (OVCAR-8): 3.97 µM (inactive) | GI50 (UO-31): 11.2 µM (inactive) | GI50 (CAKI-1): 4.62 µM (inactive) | GI50 (SK-MEL-28): 10.4 µM (inactive) | GI50 (SK-MEL-5): 3.24 µM (inactive) | GI50 (KM12): 2.9 µM (inactive) | GI50 (RXF 393): 2.72 µM (inactive) | GI50 (K562): 4.8 µM (inactive) | GI50 (SF-268): 7.24 µM (inactive) | GI50 (Malme-3M): 5.38 µM (inactive) | GI50 (UACC-257): 4.09 µM (inactive) | GI50 (HOP-92): 17.5 µM (inactive) | GI50 (EKVX): 14.6 µM (inactive) | GI50 (TK-10): 12.8 µM (inactive) | GI50 (IGROV-1): 2.11 µM (inactive) | GI50 (MDA-N): 3.86 µM (inactive) | GI50 (786-0): 3.79 µM (inactive) | GI50 (HOP-62): 5.16 µM (inactive) | GI50 (HCT-15): 3.85 µM | GI50 (M14): 4.38 µM (inactive) | GI50 (NCI-H460): 4.31 µM (inactive) | GI50 (MDA-MB-435): 1.61 µM (inactive) | GI50 (MCF7): 3.13 µM (inactive) | GI50 (OVCAR-3): 1.71 µM (inactive) | GI50 (A549): 4.56 µM (inactive) | GI50 (RPMI-8226): 2.23 µM (inactive) | GI50 (SR): 1.6 µM (inactive) | GI50 (T47D): 6.01 µM (inactive) | GI50 (SF-295): 3.64 µM (inactive) | GI50 (NCI-H23): 5.51 µM (inactive)

CSC12c3cc(C)n(-c4ccccc4)c3CC(C)(C)CN1C(=O)C2Oc1ccccc1 (stereo not drawn)
GI50 (MOLT-4): 10.2 µM (inactive) | GI50 (DU-145): > 100 µM (inactive) | GI50 (ACHN): 36 µM (inactive) | GI50 (UACC-62): 29.3 µM (inactive) | GI50 (LOX IMVI): 17.5 µM (inactive) | GI50 (SNB-19): > 100 µM (inactive) | GI50 (SNB-75): > 100 µM (inactive) | GI50 (PC-3): 35.2 µM (inactive) | GI50 (U-251): 93.5 µM (inactive) | GI50 (CCRF-CEM): 16.6 µM (inactive) | GI50 (MDA-MB-231): > 100 µM (inactive) | GI50 (OVCAR-5): > 100 µM (inactive) | GI50 (SF-539): > 100 µM (inactive) | GI50 (A498): 54 µM (inactive) | GI50 (SK-MEL-2): 72.8 µM (inactive) | GI50 (HCC 2998): 41.2 µM (inactive) | GI50 (SN12C): > 100 µM (inactive) | GI50 (NCI-H226): 24.9 µM (inactive) | GI50 (HCT-116): 12.1 µM (inactive) | GI50 (OVCAR-4): > 100 µM (inactive) | GI50 (COLO 205): 30.5 µM (inactive) | GI50 (NCI/ADR-RES): 62.4 µM (inactive) | GI50 (OVCAR-8): 97.3 µM (inactive) | GI50 (UO-31): 25.7 µM (inactive) | GI50 (CAKI-1): > 100 µM (inactive) | GI50 (SK-MEL-28): 62.7 µM (inactive) | GI50 (SK-MEL-5): 22.4 µM (inactive) | GI50 (KM12): > 100 µM (inactive) | GI50 (RXF 393): > 100 µM (inactive) | GI50 (K562): 32.1 µM (inactive) | GI50 (UACC-257): 19.1 µM (inactive) | GI50 (HOP-92): 7.66 µM (inactive) | GI50 (EKVX): 26.5 µM (inactive) | GI50 (IGROV-1): > 100 µM (inactive) | GI50 (BT-549): 85.7 µM (inactive) | GI50 (786-0): 83.8 µM (inactive) | GI50 (HOP-62): > 100 µM (inactive) | GI50 (HCT-15): 28.1 µM | GI50 (M14): 12.4 µM (inactive) | GI50 (NCI-H460): 29.1 µM (inactive) | GI50 (SW-620): 40.1 µM (inactive) | GI50 (MDA-MB-435): > 100 µM (inactive) | GI50 (MCF7): 18 µM (inactive) | GI50 (OVCAR-3): > 100 µM (inactive) | GI50 (A549): 11.7 µM (inactive) | GI50 (RPMI-8226): 7.08 µM (inactive) | GI50 (SR): 11.3 µM (inactive) | GI50 (T47D): > 100 µM (inactive) | GI50 (SF-295): 8.18 µM (inactive) | GI50 (NCI-H23): 27.9 µM (inactive)

Cn1c2nc3ccccc3c-2cc2ccccc21 [NEOCRYPTOLEPINE]
GI50 (DU-145): 6.82 µM (inactive) | GI50 (SK-OV-3): 6.47 µM (inactive) | GI50 (HT-29): 2.51 µM (inactive) | GI50 (LOX IMVI): 3.27 µM (inactive) | GI50 (PC-3): 3.3 µM (inactive) | GI50 (CCRF-CEM): 3.15 µM (inactive) | GI50 (SF-539): 3.05 µM (inactive) | GI50 (HL-60): 2.38 µM (inactive) | GI50 (HCC 2998): 2.48 µM (inactive) | GI50 (COLO 205): 2.93 µM (inactive) | GI50 (K562): 3.41 µM (inactive) | GI50 (EKVX): 2.28 µM (inactive) | GI50 (IGROV-1): 2.7 µM (inactive) | GI50 (BT-549): 3.19 µM (inactive) | GI50 (786-0): 3.84 µM (inactive) | GI50 (NCI-H460): 2.38 µM (inactive) | GI50 (SW-620): 3.68 µM (inactive) | GI50 (MDA-MB-435): 4.2 µM (inactive) | GI50 (MCF7): 2.74 µM (inactive) | GI50 (OVCAR-3): 5.18 µM (inactive) | GI50 (SR): 2.2 µM (inactive) | GI50 (T47D): 4.81 µM (inactive) | GI50 (SF-295): 4.59 µM (inactive)
